In patent EP1205473A1, “VESAMICOL PIPERAZINE DERIVATIVES AND DRUGS CONTAINING THE SAME” (DAIICHI RADIOISOTOPE LABORATORIES, LTD., priority 1999, dated 2001):
Read-outs that look alike come from different tables or passages of the source.

Key:
[1] = target: T1, sigma receptors (Cavia porcellus, UniProt Q60492); assay: Receptor binding test: inhibition of tritium-labeled (+) pentazocine binding to brain homogenate; parameters: species or system male guinea pig
T1 construct: The brain was immediately extracted; The cerebellum was removed from the brain; from tissue; host or cells: guinea pig brain without cerebellum, membrane pellet
T1 sequence (Q60492 whole entry): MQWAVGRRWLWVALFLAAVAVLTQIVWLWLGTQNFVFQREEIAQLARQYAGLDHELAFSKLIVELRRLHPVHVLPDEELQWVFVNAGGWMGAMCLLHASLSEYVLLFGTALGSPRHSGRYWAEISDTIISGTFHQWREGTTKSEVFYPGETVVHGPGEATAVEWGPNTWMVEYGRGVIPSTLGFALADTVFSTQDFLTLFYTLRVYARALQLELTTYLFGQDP
Procedure: (§1) Properties relating to binding of the vesamicol piperazine derivatives of the present invention to various receptors were examined as follows. Specifically, ligands which combine with each receptor were incubated together with homogenates prepared as follows.
To measure affinity to sigma receptors, tritium-labeled (+) pentazocine was added to a brain homogenate prepared as follows. The vesamicol piperazine derivatives synthesized in the Examples were added at various concentrations, and the mixture was incubated for two hours at room temperature.
(§2) B (%) =((1 0 0 × [U])^(∩))/([ I C50 (])^(∩) (+ [U])^(∩)) [formula] wherein B(%) is the proportion of specific binding in the total binding, n indicates a Hill coefficient, and U is the concentration of unbound ligand.
A male guinea pig was anesthetized with ether and was decapitated. The brain was immediately extracted. The cerebellum was removed from the brain. 10 mM Tris-sucrose buffer solution (0.32 M sucrose + 10 mM Tris-HCl (pH 7.4)) was added in the amount of 10 ml/g of the tissue. The mixture was homogenized by a potter-type homogenizer for 6-10 strokes. The homogenate was centrifuged at 1,000 x g for 10 minutes at 4°C and the supernatant liquid was collected. The resulting pellets were suspended in the Tris-sucrose buffer solution at the concentration of 2 ml/g, followed by centrifugation at 1,000 x g for 10 minutes at 4°C. The supernatant liquids obtained by the two centrifugation at 1,000 x g were combined and centrifuged at 31,000 x g for 15 minutes at 4°C. The resulting pellets were suspended in a 10 mM Tris-HCl buffer solution (pH 7.4) at a concentration of 3 ml/g of tissue and incubated for 30 minutes at 25°C. After incubation, the suspension was centrifuged at 31,000 x g for 15 minutes at 4°C. The pellets obtained were suspended in a 10 mM Tris-HCl buffer solution (pH 7.4) to make a final concentration of 1.53 ml/g of tissue. The suspension was homogenized by a potter-type homogenizer for 5 strokes. The homogenate was stored at -80°C until the start of the experiment.

[2] = target: serotonin 5-HT2A receptors (Rattus norvegicus, UniProt P14842); assay: Receptor binding test: inhibition of tritium-labeled ketanserin binding to brain homogenate; parameters: species or system Male Wistar rats
Sequence of serotonin 5-HT2A receptors (P14842 whole entry): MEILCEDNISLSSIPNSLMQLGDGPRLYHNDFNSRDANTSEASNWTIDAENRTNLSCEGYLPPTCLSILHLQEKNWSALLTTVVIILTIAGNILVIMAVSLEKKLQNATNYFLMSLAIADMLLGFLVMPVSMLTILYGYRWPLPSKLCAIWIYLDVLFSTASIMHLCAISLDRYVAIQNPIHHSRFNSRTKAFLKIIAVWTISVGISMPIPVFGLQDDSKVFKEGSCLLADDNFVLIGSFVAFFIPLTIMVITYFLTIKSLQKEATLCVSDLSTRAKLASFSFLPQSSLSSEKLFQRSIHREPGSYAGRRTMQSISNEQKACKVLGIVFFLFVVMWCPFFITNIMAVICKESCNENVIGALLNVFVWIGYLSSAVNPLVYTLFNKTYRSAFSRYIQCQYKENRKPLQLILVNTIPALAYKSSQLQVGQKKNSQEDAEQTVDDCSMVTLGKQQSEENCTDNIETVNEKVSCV

[3] = target: T2, serotonin 5-HT1A receptors (Rattus norvegicus, UniProt P19327); assay: Receptor binding test: inhibition of tritium-labeled 8-hydroxy-DPAT binding to brain (hippocampus) homogenate; parameters: species or system Male Wistar rats
T2 construct: The hippocampi were immediately collected from the brains; from tissue; host or cells: rat hippocampus membranes
T2 sequence (P19327 1-422): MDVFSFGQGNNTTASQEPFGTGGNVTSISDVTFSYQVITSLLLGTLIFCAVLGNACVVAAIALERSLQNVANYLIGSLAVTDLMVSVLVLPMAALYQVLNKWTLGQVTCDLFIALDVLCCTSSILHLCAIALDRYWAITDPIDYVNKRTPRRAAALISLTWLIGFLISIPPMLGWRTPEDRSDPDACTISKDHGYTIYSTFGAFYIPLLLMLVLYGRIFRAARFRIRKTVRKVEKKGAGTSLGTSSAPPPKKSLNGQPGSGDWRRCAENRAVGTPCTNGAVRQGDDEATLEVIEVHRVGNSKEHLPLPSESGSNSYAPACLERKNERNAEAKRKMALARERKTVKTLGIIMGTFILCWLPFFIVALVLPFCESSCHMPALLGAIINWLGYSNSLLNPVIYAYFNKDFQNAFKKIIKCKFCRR
Procedure: as §1
To measure affinity to serotonin 5-HT1A receptors, tritium-labeled 8-hydroxy-DPAT was added to a brain homogenate prepared as follows. The vesamicol piperazine derivatives synthesized in the Examples were added at various concentrations, and the mixture was incubated for 30 minutes at 37°C. To measure affinity to serotonin 5-HT2A receptors, tritium-labeled ketanserin was added to a brain homogenate prepared as follows. The vesamicol piperazine derivatives synthesized in the Examples were added at various concentrations, and the mixture was incubated for 15 minutes at 37°C.
as §2
Male Wistar rats were anesthetized with ether and were decapitated and the brains quickly extracted. The hippocampi were immediately collected from the brains. A 40-fold (vol/wt) amount of ice cooled 50 mM Tris-HCl buffer (pH 7.4) was added to the hippocampi. The mixture was homogenized using a potter-type homogenizer. The homogenate was centrifuged at 40,000 x g for 20 minutes. The supernatant liquid was removed and the resulting pellets were suspended in a 40-fold amount of Tris-HCl buffer solution. The suspension was centrifuged and the Tris buffer solution was again added to the pellets. This procedure was repeated twice. The product thus obtained was homogenized using a 40-fold amount of Tris-HCl buffer solution and incubated for 10 minutes at 37°C to remove endogenic 5-HT. The cell membrane was collected by centrifugation, washed twice, and suspended in a 10-fold amount of 50 mM Tris-HCl buffer solution (pH 7.4). The suspension thus obtained was stored at -80°C until the start of the binding experiment.

[4] = target: T3, vesamicol receptors (Rattus norvegicus, UniProt Q62666); assay: Receptor binding test: inhibition of I-125 labeled 5-iodobenzo vesamicol binding to brain homogenate; parameters: from tissue; host or cells: rat brain without cerebellum, P2 fraction; species or system Male Wistar rats; settings: Inhibitive concentration at 50% (IC50), Vesamicol receptor, Table 5; incubated three hours at 37°C; no unit printed in table (b19 gives nM for DRC140)
T3 sequence (Q62666 1-530): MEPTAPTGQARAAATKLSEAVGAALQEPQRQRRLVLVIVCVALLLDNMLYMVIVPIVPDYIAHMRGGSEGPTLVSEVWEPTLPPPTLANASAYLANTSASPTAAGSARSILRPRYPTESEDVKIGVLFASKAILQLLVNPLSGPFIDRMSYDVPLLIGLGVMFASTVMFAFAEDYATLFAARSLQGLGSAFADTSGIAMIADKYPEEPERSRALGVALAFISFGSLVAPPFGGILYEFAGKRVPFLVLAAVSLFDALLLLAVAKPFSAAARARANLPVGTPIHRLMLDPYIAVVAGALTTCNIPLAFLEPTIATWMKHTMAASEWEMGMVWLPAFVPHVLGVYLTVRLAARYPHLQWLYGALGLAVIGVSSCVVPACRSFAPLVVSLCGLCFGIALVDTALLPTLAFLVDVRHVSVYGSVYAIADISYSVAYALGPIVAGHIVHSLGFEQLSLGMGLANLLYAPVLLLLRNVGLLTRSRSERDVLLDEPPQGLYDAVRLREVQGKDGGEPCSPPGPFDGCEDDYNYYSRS
Procedure: as §1
To measure affinity of vesamicol receptors, I-125 labeled 5-iodobenzo vesamicol (synthesized and labeled according to Jung et al., J. Med. Chem. 33, 2065-2068, 1990) was added to a brain homogenate prepared as follows. The vesamicol piperazine derivatives synthesized in the Examples were added at various concentrations. The mixture was then incubated for three hours at 37°C.
as §2
Male Wistar rats were anesthetized with ether and were decapitated. The brains were immediately extracted. The cerebella were removed from the brains. 0.32 M sucrose (containing 4 mM HEPES (pH 7.4)) in an amount of five times the wet amount (weight) of this sample was added. The sample was homogenized by a potter-type homogenizer for 12 strokes while cooling with ice. 0.32 M sucrose in the same amount as the homogenate (total: 10 times the wet amount of the original sample) was added. The suspension thus obtained was centrifuged for 5 minutes at 1,000 x g. The precipitate was removed. The supernatant liquid was centrifuged at 9,200 x g for 15 minutes to separate the precipitate from the supernatant liquid. P2 fractions were suspended in a Tris-HCl buffer (pH 7.4) for binding experiments and stored at -80°C until the start of the binding experiment.

[5] = target: T3, vesamicol receptors; assay: Inhibition experiment: inhibition of binding of radioactive-iodine-labeled DRC140 to P2 fractions; parameters: Synaptic vesicles were extracted and separated from the brain of a rat; from tissue; host or cells: rat brain without cerebellum: P2, crude synaptic vesicles, purified synaptic vesicles
[6] = target: T3, vesamicol receptors; assay: Inhibition experiment: inhibition of binding of radioactive-iodine-labeled DRC140 to purified synaptic vesicle fractions; parameters: Synaptic vesicles were extracted and separated from the brain of a rat; from tissue; host or cells: rat brain without cerebellum: P2, crude synaptic vesicles, purified synaptic vesicles
[7] = target: adrenaline α1 receptors; assay: Receptor binding test: inhibition of tritium-labeled prazosin binding to brain homogenate; parameters: species or system Male Wistar rats; settings: read-out: inhibitive concentration at 50% (IC50), Receptor Alpha-1; Table 9; high purity derivatives; unit inferred
[8] = read-out: inhibitive concentration at 50% (IC50), Receptor Sigma-1
[9] = inhibitive concentration at 50% (IC50), Receptor Vesamicol

Structure (SMILES) | IC50 ([1]; read-out: Inhibitive concentration at 50% (IC50), Sigma α-1 receptor) [nM] | IC50 [1, 8] [nM] | IC50 ([2]; read-out: Inhibitive concentration at 50% (IC50), Serotonin receptor 5-HT2A) [nM] | IC50 ([3]; read-out: Inhibitive concentration at 50% (IC50), Serotonin receptor 5-HT1A) [nM] | IC50 [4] [nM] | IC50 [5, 9] [nM] | IC50 [6] [nM] | IC50 [1] [nM] | IC50 [2] [nM] | IC50 [3] [nM] | IC50 ([5]; IC50 (nM) Average ± S.D) [nM] | IC50 [7] [nM] | IC50 ([2]; read-out: inhibitive concentration at 50% (IC50), Receptor 5-HT2A) [nM] | IC50 ([3]; read-out: inhibitive concentration at 50% (IC50), Receptor 5-HT1A) [nM] | IC50 ([5]; read-out: inhibitive concentration at 50% (IC50), Receptor Vesamicol) [nM]
Cc1ccc(C)c(N2CCN([C@@H]3Cc4c(I)cccc4C[C@H]3O)CC2)c1 (single isomer, unassigned) [DRE350, (-)-trans-5-iodo-2-hydroxy-3-[4-[2,5-dimethylphenyl]piperazinyl]tetralin] | 1500 | 5550 | > 20000 | 240 | 0.58 | 0.83 | – | – | – | – | – | – | – | – | –
OC1CCCCC1N1CCC(c2ccccc2)CC1 (single isomer, unassigned; (-)) [(-)-Vesamicol, 2-(4-phenyl-piperidino)cyclohexanol, reference compound] | – | – | – | – | – | 45.4 | 45.4 ± 3.59 | 66.5 | > 5000 | > 5000 | 58.2 ± 17.3 | – | – | – | –
O[C@@H]1Cc2cccc(I)c2C[C@H]1N1CCC(c2ccccc2)CC1 [(-)-IBVM, 5-iodobenzovesamicol, reference compound] | – | 174 | – | – | – | – | – | – | – | – | – | 2.61 | > 5000 | 119 | 0.32
